From patent publication US20230056135A1, “MONOMER AND MULTIMERIC ANTI-HBV AGENTS” (priority 2018, published 2023)
Like-named read-outs stand apart in the source and are kept apart here.

Tests used:
Format in all cases: cell-based
[1] = tested on: HBV replication in HepAD38 cells; assay: Drug-drug combination, inhibition of HBV replication in HepAD38 cells
HepG2 cells = assay: Cellular toxicity assay in HepG2 cells
Method: (§1) The toxicity of the compounds was assessed in Vero, human PBM, CEM (human lymphoblastoid), MT-2, and HepG2 cells, as described previously (see Schinazi R. F., Sommadossi J.-P., Saalmann V., Cannon D. L., Xie M.-Y., Hart G. C., Smith G. A. & Hahn E. F. Antimicrob. Agents Chemother. 1990, 34, 1061-67). Cycloheximide was included as positive cytotoxic control, and untreated cells exposed to solvent were included as negative controls. The cytotoxicity IC50 was obtained from the concentration-response curve using the median effective method described previously (see Chou T.-C. & Talalay P. Adv. Enzyme Regul. 1984, 22, 27-55; Belen'kii M. S. & Schinazi R. F. Antiviral Res. 1994, 25, 1-11).

Vero = assay: Cellular toxicity assay in Vero cells
Method: as §1

wild type HBV = assay: Anti-HBV assay in AD-38 cell line (HBV in culture supernatant); conditions: AD-38 cell line, Tet (-); for EC50: read-out: Anti-HBV activity EC50; for EC90: read-out: Anti-HBV activity EC90
Method: The anti-HBV activity of the compounds was determined by treating the AD-38 cell line carrying wild type HBV under the control of tetracycline (see Ladner S. K., Otto M. J., Barker C. S., Zaifert K., Wang G. H., Guo J. T., Seeger C. & King R. W. Antimicrob. Agents Chemother. 1997, 41, 1715-20). Removal of tetracycline from the medium [Tet (−)] results in the production of HBV. The levels of HBV in the culture supernatant fluids from cells treated with the compounds were compared with that of the untreated controls. Control cultures with tetracycline [Tet (+)] were also maintained to determine the basal levels of HBV expression. 3TC was included as positive control.
The median effective concentrations (EC50) ranges of several of the compounds described herein against HBV are shown in Table 3: […]

[2] = tested on: CEM (human lymphoblastoid); assay: Cellular toxicity assay in CEM cells
Method: as §1

human PBM = assay: Cellular toxicity assay in human PBM cells
Method: as §1

[3] = Cellular toxicity assay in HepG2 cells; conditions: human, HepG2 cells; read-out: Cytotoxicity; CC50 (μM) HepG2
Method: as §1

Glutathione levels (GSH) = assay: Glutathione levels in Huh7 cells (GSH-Glo Glutathione Assay); conditions: for GSH levels relative to untreated control: 22 h treatment; for inhibition at 10 µM: Homo sapiens, Huh-7, read-out: GSH levels relative to untreated control (% inhibition at 10 μM), 22 h, 10 μM
Method: Glutathione levels (GSH) were measured in Huh7 cells after 22 h treatment with 10 μM CAMs (GSH-Glo™ Glutathione Assay—Promega). Treatment of Huh7 with 10 μM positive control, L-buthionine-sulfoximine, reduced cellular GSH levels by 58% (data not shown); Samples were tested in triplicates.

[4] = Cellular toxicity assay in human PBM cells; conditions: human, human PBM cells; read-out: Cytotoxicity; CC50 (μM) PBM
Method: as §1

HBV = assay: Antiviral activity in HepG2-NTCP infectious system; conditions: Hepatitis B virus, 264 h
Method: (§2) Antiviral Activity in HepG2-NTCP Infectious System: HepG2-NTCP (Clone 7) cells were pretreated with antivirals for 30 min prior infection for 24 h with stock concentrated virus produced from HepAD38 at a dose of ˜300 virus genome equivalent (VGE) per cell in the presence of media containing 4% polyethylene glycol 8000 (PEG) and 2% DMSO. After 24 h, virus inoculum with or without antiviral agents were washed out from cells and media in the presence of 4% PEG and 2% DMSO, with or without antiviral agents were replenished every two days until day 11. Cells and supernatants were harvested and tested for intracellular HBV DNA, pregenomic (pg) RNA, surface RNA, and secreted HBeAg (ELISA).

[5] = Cytotoxicity (rDNA) in HepG2-NTCP infectious system; conditions: human, HepG2-NTCP (Clone 7) cells infected with HBV, day 11, read-out: HBV DNA/rDNA CC50
Method: as §2

[6] = HepG2 cells, read-out: Cytotoxicity, CC50 (μM) HepG2
[7] = Vero cells, read-out: Cytotoxicity, CC50 (μM) VERO
[8] = CEM cells, read-out: Cytotoxicity, CC50 (μM) CEM
[9] = human PBM cells, read-out: Cytotoxicity, CC50 (μM) PBM
[10] = read-out: HBV DNA/rDNA EC50 (nM)
[11] = read-out: HBV RNA EC50, nM pgRNA
[12] = read-out: HBV RNA EC50, nM sRNA

For `Cc1c(C(=O)C(=O)NCc2cn(CCCCCCCCCCCCn3cc(CNC(=O)C(=O)c4c(C)c(C(=O)Nc5ccc(F)c(F)c5)n(C)c4C)nn3)nn2)c(C)n(C)c1C(=O)Nc1ccc(F)c(F)c1` [Compound 53, 4,4′-(2,2′-(((Dodecane-1,12-diylbis(1H-1,2,3-triazole-1,4-diyl))bis(methylene))bis(azanediyl))bis(2-oxoacetyl))bis(N-(3,4-difluorophenyl)-1,3,5-trimethyl-1H-pyrrole-2-carboxamide)], the EC50 ([1]; HepAD38 cells, combinations at ratio 1:1, read-out: EC50) was 0.02 nM, the EC90 ([1]; HepAD38 cells, combinations at ratio 1:1, read-out: EC90) was 5.29 nM and the CC50 (HepG2 cells; [6]) was > 100 µM. The CC50 (Vero; [7]) was > 100 µM, the EC50 (wild type HBV) was 0.1 to 1 nM and the EC90 (wild type HBV) was 10 to 100 nM. It also gave a CC50 [2, 8] of 45 µM and a CC50 (human PBM; [9]) of 35 µM.

With `O=C(NC(Br)=C(C(=O)N1CCCCC1)c1ccccc1OCCCCCCCCCCCCOc1ccccc1C(C(=O)N1CCCCC1)=C(Br)NC(=O)c1ccc([N+](=O)[O-])cc1)c1ccc([N+](=O)[O-])cc1` [Compound 28] the CC50 (HepG2 cells) was > 100 µM, the CC50 (Vero) was > 100 µM and the EC50 (wild type HBV) was 1000 to 10000 nM. The CC50 [2] was > 100 µM and the CC50 (human PBM) was > 100 µM.

For `C#CCNC(=O)C(=O)c1c(C)c(C(=O)Nc2ccc(F)c(F)c2)n(CC#C)c1C` [Compound 114, N-(3,4-Difluorophenyl)-3,5-dimethyl-4-(2-oxo-2-(prop-2-yn-1-ylamino)acetyl)-1-(prop-2-yn-1-yl)-1H-pyrrole-2-carboxamide], the CC50 [3] was > 100 µM, the “GSH levels relative to untreated control” value (Glutathione levels (GSH)) was > 10 µM and the inhibition at 10 µM (Glutathione levels (GSH)) was 27%. The EC50 (wild type HBV; Hepatitis B virus) was 0.1 to 1 nM, the CC50 [4] was > 100 µM and the EC50 (HBV; [10]) was 0.6 nM. For the same molecule, the EC50 (HBV; [11]) was 79.6 nM, the EC50 (HBV; [12]) was 67.8 nM and the EC50 (HBV; read-out: HBeAg EC50, nM) was 488 nM. The CC50 at 11 days [5] was > 1000 nM.

For `C#CCn1c(C)c(C(=O)C(=O)NC(C#C)(CC)CC)c(C)c1C(=O)Nc1ccc(F)c(F)c1` [Compound 115, N-(3,4-Difluorophenyl)-4-(2-((3-ethylpent-1-yn-3-yl)amino)-2-oxoacetyl)-3,5-dimethyl-1-(prop-2-yn-1-yl)-1H-pyrrole-2-carboxamide], the CC50 [3] was 35 µM, the “GSH levels relative to untreated control” value (Glutathione levels (GSH)) was > 10 µM and the inhibition at 10 µM (Glutathione levels (GSH)) was < 1%. For the same molecule, the EC50 (wild type HBV; Hepatitis B virus) was 0.1 to 1 nM and the CC50 [4] was 45 µM.

With `Cc1c(C(=O)C(=O)NCc2cn(CCCCCCCCn3cc(CNC(=O)C(=O)c4c(C)c(C(=O)Nc5ccc(F)c(F)c5)n(C)c4C)nn3)nn2)c(C)n(C)c1C(=O)Nc1ccc(F)c(F)c1` [Compound 9, 4,4′-(2,2′-(((Octane-1,8-diylbis(1H-1,2,3-triazole-1,4-diyl))bis(methylene))bis(azanediyl))bis(2-oxoacetyl))bis(N-(3,4-difluorophenyl)-1,3,5-trimethyl-1H-pyrrole-2-carboxamide)] the CC50 (HepG2 cells; [6]) was > 100 µM, the CC50 (Vero; [7]) was > 100 µM and the EC50 (wild type HBV) was 100 to 1000 nM. For the same molecule, the EC90 (wild type HBV) was 1000 to 10000 nM, the CC50 [2, 8] was > 100 µM and the CC50 (human PBM; [9]) was 26.4 µM.

For `C=C1[C@H](CO)[C@@H](O)C[C@@H]1n1cnc2c(=O)[nH]c(N)nc21` [ETV, Entecavir, reference compound], the EC50 ([1]; Hepatitis B virus, HePAD38) was 0.04 nM, the EC90 ([1]; Hepatitis B virus, HePAD38) was 12.9 nM and the EC50 (HBV; [10]) was < 1 nM. The EC50 (HBV; [11]) was > 1000 nM, the EC50 (HBV; [12]) was > 1000 nM and the EC50 (HBV; read-out: HBeAg EC50, nM) was > 1000 nM. For the same molecule, the CC50 at 11 days [5] was > 1000 nM.

For `CCOC(=O)C1=C(CNCc2cn(CCCCCCCCn3cc(CNC(=O)C(=O)c4c(C)c(C(=O)Nc5ccc(F)c(F)c5)n(C)c4C)nn3)nn2)NC(c2nccs2)=NC1c1ccc(F)cc1Br` (centres unmarked) [Compound 20, Ethyl 4-(2-bromo-4-fluorophenyl)-6-((((1-(8-(4-((2-(5-((3,4-difluorophenyl)-carbamoyl)-1,2,4-trimethyl-1H-pyrrol-3-yl)-2-oxoacelamido)methyl)-1H-1,2,3-triazol-1-yl)octyl)-1H-1,2,3-triazol-4-yl)methyl)amino)methyl)-2-(thiazol-2-yl)-1,4-dihydropyrimidine-5-carboxylate], the CC50 (HepG2 cells) was > 100 µM, the CC50 (Vero) was > 100 µM and the EC50 (wild type HBV) was 10 to 100 nM. For the same molecule, the EC90 (wild type HBV) was 1000 to 10000 nM, the CC50 [2] was > 100 µM and the CC50 (human PBM) was 33 µM.
